In patent US20190358176A1, “METHODS OF SENSITIZING CANCER CELLS TO IMMUNE CELL KILLING” (University of Pittsburgh - of the Commonwealth System of …, priority 2017, published 2019):

Key:
MDA-MB-231 cells [1] = assay: Colony formation in three dimensional matrigel culture; type: cell-based, human
Procedure: MDA-MB-231 cells (2000/well) transduced with a biosensor consisting of EGFP with a mitochondrial targeting sequence derived from cytochrome-C oxidase subunit VIII (52) were trypsinized, resuspended in RPMI1640 containing 2% FBS and 2% matrigel, and seeded in 384 well microplates on a 15 μl cushion of undiluted matrigel. After 24 hours, cells were treated with various concentrations of BCI-215 or vehicle (0.2% DMSO). After two days, drug was washed out and cells allowed to expand for an additional three to five days. At the end of the study, medium was replaced with HBSS containing 4 μg/ml PI for 1 hour, and plates scanned live on an ImageXpress Ultra HCS reader, acquiring z-stacks (4× objective, 20 planes, 50 μm) in the green and red channels. Cell numbers were quantified from maximum projection images using the Multiwavelength Cell Scoring application.

MDA-MB-231 cells [2] = assay: BCI-215 toxicity in the presence of doxorubicin; type: cell-based, human; details: doxorubicin 5 μM pre-treated 2-3 hours
Procedure: FIG. 9. Reduced toxicity of BCI-215 in the presence of doxorubicin. MDA-MB-231 carrying the mitochondrial-targeted, GFP-labeled cytochrome C biosensor were treated for 2-3 hours with vehicle (DMSO) or doxorubicin (5 μM) before being exposed to concentration gradients of BCI-215 for 20 h. Plates were scanned live on an ImageXpress high content reader at 20× magnification and GFP positive cells enumerated. Cell densities were normalized to vehicle or doxorubicin alone, respectively. Data are the averages ±SD from three independent experiments, each performed in quadruplicate.

MDA-MB-231 cells [3] = assay: Immune cell killing (sensitization to PBMC-derived LAK); type: cell-based, human
Procedure: Peripheral blood mononuclear cells were obtained from healthy volunteers with an established IRB approved protocol, separated from heparinized blood on Ficoll-hypaque (GE Healthcare, Chicago) gradients as previously reported (16). Cells were cultured in RPMI 1640 supplemented with 10% FCS, 1% glutamine, 1% penicillin/streptomycin, and stimulated with 6,000 IU of Interleukin 2 for 24 hours. After incubation, cells were washed with PBS and counted. In parallel, MBA-MB-231 cells were pre-treated in a 384 well plate with vehicle or BCI-215 (3 μM). After 24 hours in culture, medium was replaced and PBMC added in two-fold serial dilutions starting with a 50-fold excess of PBMCs in triplicate. After 24 hours of co-culture, cells were fixed with formaldehyde/Hoechst 33342, washed twice with PBS, and imaged on the ArrayScan II. Cancer cells were identified by their larger nuclei compared with PBMC, setting a size gate in the DAPI channel. In experiments with chemotherapeutics, cells carrying a biosensor consisting of a mitochondrial targeting sequence derived from cytochrome c oxidase VIII linked to GFP that is a surrogate for cytochrome c release from mitochondria (17) were pre-treated for 24 hours with cisplatin (2 μM) or doxorubicin (400 nM), exposed to LAK as above, and cancer cells identified and quantified by green fluorescence. Cell densities were normalized to those in the absence of PBMCs. Mean cell densities from multiple independent experiments were averaged and plotted in GraphPad Prism.

rat hepatocytes = assay: Five-day hepatocyte toxicity (PI positive cells); type: cell-based; details: rat hepatocytes, 5-day exposure
Procedure: Rat hepatocytes were isolated using standard two step collagenase digestion (15) and sub-cultivated at 14,000 hepatocytes/well in collagen-1 coated 384 well plates in Williams E Medium supplemented with 10% FBS, 2 mM L-glutamine and 50 U/ml Penicillin and streptomycin. After 4 hours, medium was decanted and replaced with Hepatocyte Maintenance Media (Williams E supplemented with 1.25 mg/ml bovine serum albumin, 6.25 μg/ml human insulin, 100 nM dexamethasone, 6.25 μg/ml human transferrin, 6.25 ng/ml selenous acid, 2 mM L-glutamine, 15 mM HEPES, 100 U/mL penicillin, and 100 U/mL streptomycin). After overnight culture, cells were treated with concentration gradients of test agents. One hour after compound addition, cells were labeled with 200 nM TMRE and 4 μg/ml Hoechst 33342 for 45 min, imaged live on an ArrayScan VTI using a 10× objective, and images were analyzed with the Compartmental Bioapplication. Mitochondria were identified as cytosolic spots by size and brightness. The final parameter was % HIGH RingSpotAvgIntenCh2 (i.e., percentage of cells with TMRE puncta in the cytoplasm based on a threshold set with vehicle treated cells).
A gelling solution of 1.25 mg/ml rat tail collagen type I in pH 7.2 90:10 (v/v) Williams E media/10×HBSS was overlaid onto the rat hepatocytes. The collagen gel was incubated for 1 hour at 37° C., 5% CO2. The collagen sandwich cultures were then challenged for 5 days to test compounds in Hepatocyte Maintenance Media, without refeeding. A 10× solution of 40 μg/ml Hoechst 33342 was added during the final 2 hours of incubation followed by a 10× solution of 20 μg/ml PI for 1 hour. Cells were imaged and the percentage of PI positive cells calculated as above.

MDA-MB-231 cells [4] = assay: HCA of cell motility and cytotoxicity (Oris Pro 384 cell migration plate); type: cell-based, human; details: 48 hours, at antimigratory concentrations
Procedure: HCA of cell motility and cytotoxicity was performed essentially as described (51). MDA-MB-231 cells (15,000/well) were plated in collagen-coated Oris™ Pro 384-well microplates (Platypus Technologies cat # PRO384CMACCS) containing a chemical exclusion zone that dissolves upon cell seeding. Two hours after plating, medium was removed, and cells treated with ten-point, two-fold concentration gradients of test agents. Forty-eight hours after treatment, cells were stained with 10 μg/ml Hoechst 33342 and 1 μg/ml PI in HBSS for 15 min at 37° C. Plates were washed once with PBS and scanned live on the ArrayScan II using a 5× objective. To capture cells that had entered into the exclusion zone, a single field was acquired in the center of the well and nuclei therein enumerated. To assess changes in cell loss, nuclear size, and necrotic cell death, a second scan was performed that captured one field at the edge of the well (51). Parameters exported and plotted were SelectedObjectCountPerValidField (cell density), MEAN ObjectAreaCh1 (nucleus size), and % RESPONDER MeanAvgIntenCh2 (percent PI positive cells based on based on a threshold set with vehicle treated cells).

zebrafish embryos = details: prior SAR study (12); cited from earlier work
endothelial cell line = details: prior SAR study (12); cited from earlier work
MDA-MB-231 cells [5] = assay: Detection and quantitation of ROS in cancer cells (CM-H2-DCFDA); type: cell-based, human; details: 50 μM
Procedure: Detection and quantitation of ROS in cancer cells was performed as described before (14). Briefly, MDA-MB-231 cells were labeled with Hoechst 33342, loaded with CM-H2-DCFDA (5 μM, 15 min), and treated with test agents for 10 min. After two washes, cells were analyzed for Hoechst and ROS/FITC fluorescence on the ArrayScan II. Cells were classified as positive for ROS if their average FITC intensity exceeded a threshold defined as the average FITC intensity plus one SD from DMSO-treated wells.

**Q.** Which “cell lysis (PI positivity)” value (MDA-MB-231 cells [1]; longer-term 3D matrigel assay) does the source give for `O=C1/C(=C/c2ccccc2)C(NC2CCCCC2)c2cc(Br)ccc21` (centres unmarked) [BCI-215] here?
**A.** pronounced cell lysis

**Q.** What about the colony formation (MDA-MB-231 cells [1]; matrigel-on-top model, two days of exposure then washout) of the same compound?
**A.** inhibited colony formation

**Q.** And the “toxicity of BCI-215 after doxorubicin pre-treatment (cell numbers)” value (MDA-MB-231 cells [2])?
**A.** reduced the toxicity of BCI-215

**Q.** What about the “difference in killing versus vehicle” value (MDA-MB-231 cells [3]; BCI-215 3 μM pre-treatment versus vehicle) of the same compound?
**A.** well over three log differences in killing

**Q.** What about the “LAK number at maximal sensitization” value (MDA-MB-231 cells [3]; MDA-MB-231 pre-treated with BCI-215 3 μM for 24 hours) of the same compound?
**A.** 1000 LAK/well

**Q.** What about the “sensitization to LAK activity” value (MDA-MB-231 cells [3]; pre-treated 24 hours: BCI-215 3 μM, cisplatin 2 μM, doxorubicin 400 nM) of the same compound?
**A.** sensitization at lower effector ratios than cisplatin or doxorubicin

**Q.** What about the “hepatocyte toxicity, cell death (PI positive cells)” value (rat hepatocytes) of the same compound?
**A.** completely devoid of hepatocyte toxicity up to 100

**Q.** And the “necrosis (% PI positive cells)” value (MDA-MB-231 cells [4])?
**A.** no signs of necrosis

**Q.** And the “toxicity to zebrafish embryos” value (zebrafish embryos)?
**A.** non-toxic

**Q.** And the “toxicity to an endothelial cell line” value (endothelial cell line)?
**A.** non-toxic

**Q.** And the “ROS generation at 50 μM” value (MDA-MB-231 cells [5])?
**A.** did not generate ROS
